Data: patent publication US10231985B2, “Compounds and compositions comprising such compounds for the prevention or treatment of dyslipidaemias” (CENTRE NATIONAL DE LA RECHERCHE SCIENTIFIQUE, priority 2013, dated 2019)

Assays:
[1] = system: hem1Δ yeasts grown under SFA accumulation conditions; assay: Restoration of growth of lipointoxicated hem1Δ yeast; type: cell-based, Saccharomyces cerevisiae; conditions: after 3 days, increasing concentrations
Method: The strain bearing the hem1Δ mutation is grown, under aerobic conditions, with shaking and at 28° C., in liquid YPG^A medium (YPG (1% yeast extract (w/v), 1% peptone (w/v) and 2% glucose (w/v)) supplemented with 80 μg/ml 6-aminolevulinic acid (ALA)). Lipointoxication by saturated fatty acids (SFA) is caused by depletion of unsaturated fatty acids (UFA), the synthesis of which is dependent on the presence of heme (the prosthetic group of the Ole1p enzyme in particular), by transfer to YPG^+ medium (YPG supplemented with 80 μg/ml ergosterol to compensate for the sterol depletion obtained under this condition). Lipointoxication can be induced on solid YPG^+ medium+2% agar (w/v) by transferring 3500 cells (hem1Δ from preculture in YPG^A) per cm^2 or, alternatively, in liquid medium by inoculating 2×10^6 cells/ml YPG^+. Classically, the effects of SFA lipointoxication are analyzed 7 hours after the transfer to YPG^+ medium. The ability of a compound to counter the deleterious effects of SFA lipointoxication, in turn, is evaluated successively to the addition of this compound on (or in) the YPG^+ transfer medium, after seeding with the cells.
Following the induction of SFA lipointoxication (for hem1Δ grown on solid medium) 5 μl drops of solutions of the various compounds at 10 mM in dimethylsulfoxide (DMSO) or ethanol (EtOH) are deposited on the surface of the agar. The ability of a compound to counter the arrest of lipid-induced cell growth is estimated by the appearance of a halo of hem1Δ colonies at the site of the deposition of said compound after 3 days of culture at 28° C. (see Deguil et al., 2011).
Jointly with the induction of SFA lipointoxication (for hem1Δ in liquid medium), the various compounds are added to the cultures at an initial concentration of 200 μM. Proliferation is monitored by spectrometric measurement of cell density, at regular time intervals (every hour over the duration of the observation). At a wavelength of 600 nm, one optical density unit (OD600 nm) corresponds to 2×10^7 cells/ml.

[2] = system: phospholipids of the cellular membranes (hem1Δ strain); assay: Fatty acid content of cellular phospholipids (lipid extraction, ESI-MS); type: cell-based, Saccharomyces cerevisiae
Method: The hem1Δ strain is grown in liquid medium (YPG^A, YPG^+, or YPG^++200 μM compound to be tested) under aerobic conditions, with shaking and at 28° C. for 7 hours, from an initial cell concentration of 2×10^6 cells/ml. At the conclusion of the culture, 10^8 cells are collected in order to carry out a total lipid extraction. After having suspended the cells in 1 ml of distilled water at 4° C., 500 μl of glass beads (Ø 0.6 mm) are added and the whole then undergoes 3 sequences of 20 seconds at 5000 rpm in a shaker (the tubes are kept on ice between each of the 3 sequences). The cell lysate then obtained, supplemented with bead-washing solution (1 ml), is then transferred to a 40 ml glass tube (Corex™) before carrying out the lipid extraction using a 2:1 (v/v) methanol:chloroform ratio. First, 6 ml of methanol is added and the whole is vortexed for 30 seconds and then incubated for 15 minutes at 65° C. Once the mixture cools to room temperature, 3 ml of chloroform is added and then the whole is vortexed again for 30 seconds before allowing the extraction to proceed for 16 hours. Later, the sample is centrifuged for 12 minutes at 10000 g before transferring the supernatant to a new Corex™ tube. After adding 2 ml of chloroform and then 4 ml of distilled water, the whole is vortexed for 30 seconds and then centrifuged for 8 minutes at 3000 g. After removing the resulting upper phase, the lower organic phase is collected in a glass hemolysis tube. Finally, the solvent is evaporated under a stream of nitrogen at 80° C. in order to obtain the total cellular lipid samples.
The total cellular lipid samples are resuspended in 1 ml of dichloromethane while being vortexed for 30 seconds. The whole is deposited on a silica column (BOND ELUT-SI, 100 mg 1 ml) preconditioned successively with 3 ml of methanol and then 2 ml of dichloromethane. The fraction retained by the column is then washed successively with 2 ml of dichloromethane and then 3 ml of acetone. Finally, 2 ml of a 50:45:5 (v/v/v) chloroform/methanol/water mixture is deposited on the column and the phospholipids thus eluted are collected in a glass hemolysis tube. The solvent is evaporated under nitrogen at 80° C. in order to obtain the cellular phospholipid samples.
Once resuspended in 100 μl of the mixture Mix^− (2:1:1 (v/v/v) isopropanol/acetonitrile/water+1% (v/v) triethylamine) or the mixture Mix^+ (2:1:1 (v/v/v) isopropanol/acetonitrile/water+1% (v/v) formic acid), the samples are analyzed by electrospray ionization mass spectrometry (ESI-MS) in negative or positive mode, respectively, and the results obtained are used to analyze the fatty acid content of the various phospholipid species.

MIN6 pancreatic β-cells = assay: Monitoring of insulin maturation (Western blot, anti-insulin); type: cell-based, mouse; conditions: MIN6, 400 μM palmitic acid 48 hours, 200 μM compound during final 24 hours
Method: Pancreatic β-cells, MIN6, were grown under control conditions (0) or, alternatively, in the presence of an exogenous source of 400 μM palmitic acid (P), for 48 hours, as described by Boslem et al. (2011), in order to generate lipointoxication conditions. During the final 24 hours of growth, 200 μM OAG, LPA or mannide monooleate was added or not as mentioned.
In the manner of that described above for the lipointoxication of BRIN-BD11 cells, the MIN6 cell line is grown in complete DMEM-High Glucose medium […], supplemented with 10% (v/v) fetal calf serum (FCS), 15 mM HEPES, 100 U/ml penicillin and 100 μg/ml streptomycin, and lipointoxication is induced by exposure to 400 μM palmitic acid, coupled to BSA (0.92% (w/v) final), for 48 hours, with or without the addition of the compound of interest (see Boslem et al., 2011). The cells are then collected and a Western blot is carried out as indicated above, using anti-insulin antibodies in order to follow the maturation of proinsulin to insulin.

With `CCCCCCCC/C=C\CCCCCCCC(=O)OC[C@H](CO)OC(C)=O` [OAG, 1-oleoyl-2-acetyl-sn-glycerol] the “Restoration of the growth of hem1Δ yeasts” value [1] was “restore the growth”, the “Effect on fatty acid composition of membrane phospholipids” value [2] was “without restoring a normal diunsaturated phospholipid composition” and the “Maturation of proinsulin to insulin” value (MIN6 pancreatic β-cells) was “only mannide monooleate restores”.
`CCCCCCCC/C=C\CCCCCCCC(=O)OC[C@@H](O)COP(=O)(O)O` [LPA, 1-oleoyl-sn-glycerol-3-phosphate] was tested, and the “Restoration of the growth of hem1Δ yeasts” value [1] was “restore the growth”, the “Effect on fatty acid composition of membrane phospholipids” value [2] was “act directly on lipid content” and the “Maturation of proinsulin to insulin” value (MIN6 pancreatic β-cells) was “only mannide monooleate restores”.
